In patent US11401247B2, “Thiazole-5-carboxylic acid derivative and preparation method and use thereof” (XIANGBEI WELMAN PHARMACEUTICAL CO., LTD, priority 2018, dated 2022):
Where two headings read alike, the source gives them in different places.

Assays:
hyperuricemia rats [1] = assay: pharmacodynamic screening in rat hyperuricemia model (exogenous uric acid administered, uric acid decomposition inhibited); type: in vivo, SD rats; settings: for Serum uric acid level, Value after 3 h of drug administration: 3 h after first administration, model group 174.4 ± 39.9, blank 53.9 ± 12.8; for uric acid-lowering effect (in words): 3 h after drug administration, febuxostat and ethyl ester 14 mg/kg oral; for uric acid-lowering effect (in words) / p, uric acid level 3 h after drug administration compared with the blank group: F compounds 10 mg/kg; for p, uric acid level 3 h after drug administration compared with the blank group: febuxostat 14 mg/kg oral
hyperuricemia rats [2] = assay: dose-effect relationship study in rat hyperuricemia model; type: in vivo, SD rats; settings: 3 h after first administration, model group 226.2 ± 35.2, blank 37.4 ± 5.1
Method: In order to further study the pharmacological activity of the compounds of the present disclosure, as well as the relationship between the activity and the dose, this example selected several compounds of the present disclosure to conduct a dose-effect relationship study in a rat model, in which exogenous uric acid was administered and uric acid decomposition was inhibited simultaneously. A positive drug was used as a control.
1. Experimental animals: Male SPF grade SD rats weighing 110-150 grams. […] The animals were free to drink and eat. All cages were sterilized at 121° C., feed was sterilized by irradiation, and water was sterilized purified water.
2. Experimental drugs: F-1C, F-2C, F-3A, 1.0 g for each compound; febuxostat (positive drug) 1.0 g; febuxostat ethyl ester (ethyl 2-[3-cyano-4-isobutoxyphenyl]-4-methylthiazole-5-carboxylate) 1.0 g;
3.1 Formulation of F-1C, F-2C, F-3A: Tor each of the compounds, take 100 mg, add 20 ml of 0.5% sodium carboxymethyl cellulose and grind, and then dilute to 100 ml.
3.2 Take 100 mg of febuxostat, add 20 ml of 0.5% sodium carboxymethyl cellulose and grind, and then dilute to 100 ml.
Except the blank group, the rest rats were modeled for 15 days and then their serum uric acid levels were detected. The rats were equally divided into several groups according to the detected uric acid levels thereof.
F-1C, F-2C and F-3A groups: each compound was taken orally at 3 doses, i.e., 2.5, 5 and 10 mg/kg; QD; and 10 animals for each dose group.
Febuxostat group: oral administration of 10 mg/kg, QD, and 10 animals.
Febuxostat ethyl ester group: oral administration of 10 mg/kg, QD, and 10 animals.
The blank group was not administrated with any drug. Each of the rest groups was orally administrated with oteracil potassium 1 g/kg and uric acid 0.3 g/kg and intraperitoneally injected with 0.1 g/kg uric acid (dissolved in 0.5% sodium carboxymethyl cellulose), once a day on schedule, for 15 days. 0.5 ml of blood samples was drawn from orbit before the experiment and […] after the modelling, respectively, to separated serum for determining serum uric acid levels.
After successful modeling, the rats were equally divided into several groups according to the serum uric acid values thereof, and then were intragastrically administrated with the test drugs. Three hours after the first administration, 0.5 ml of orbital venous blood was drawn from the orbit of the rats, centrifuged at 3000 RPM for 15 min, to obtain for determining the serum uric acid level of each rat.
Data were expressed by mean±standard deviation (′x±SD), and analyzed by Excel 7.0 and SPPS 13.0 for Windows software. Q-test was used for the comparison between groups, and the self-paired t-test was used for the comparison of a group before and after administration. It indicated significant difference when P<0.05.

ICR mice = settings: for Autopsy results of survival animals: 3000 mg/kg ig; for Abnormal reactions within 12 hours from ig administration: F compounds 3000 mg/kg; for Number of dead animals: 10 mice; for death, preliminary experiments / toxic reactions, preliminary experiments: intragastric 1600 mg/kg
in vivo = settings: mouse, po
[3] = formal test, all dose groups, febuxostat high-dose group
[4] = formal test, febuxostat high-dose group

Cc1nc(-c2ccc(OCC(C)C)c(C#N)c2)sc1C(=O)OC(C)Cl (stereo not drawn) [Compound F-1C]
Serum uric acid level, Value after 3 h of drug administration (hyperuricemia rats [1]; 10 mg/kg oral): 64.2 ± 28.1^a3b3 μmol/L | uric acid-lowering effect (in words) (hyperuricemia rats [1]): very obvious uric acid-lowering effects | p, uric acid level 3 h after drug administration compared with the blank group (hyperuricemia rats [1]): no significant difference | Serum uric acid content, Value after 3 h of drug administration (hyperuricemia rats [2]; 2.5 mg/kg oral): 189.8 ± 25.3^a3 μmol/L | Serum uric acid content, Value after 3 h of drug administration (hyperuricemia rats [2]; 5 mg/kg oral): 146.9 ± 19.5^a3, b3 μmol/L | Serum uric acid content, Value after 3 h of drug administration (hyperuricemia rats [2]; 10 mg/kg oral): 100.1 ± 25.8^a3, b3, c3 μmol/L | Autopsy results of survival animals (ICR mice; formal test): No obvious abnormalities were observed in the organs | animal deaths within 24 hours from the administration (ICR mice; [3]): no animal deaths were observed | Abnormal reactions within 12 hours from ig administration (ICR mice; [4]): no abnormalities were observed | Number of dead animals (ICR mice; ig 3000 mg/kg): 0 | death, preliminary experiments (ICR mice; mice): no animal died | toxic reactions, preliminary experiments (ICR mice; mice): no obvious toxicity symptom was observed | LD50 at 14 days (in vivo): 3000 mg/kg | LD50 at 14 days (in vivo; 3000 mg/kg): ≥ 3000 mg/kg

Cc1nc(-c2ccc(OCC(C)C)c(C#N)c2)sc1C(=O)NC(CC(=O)O)C(=O)O (stereo not drawn) [Compound F-2C]
Serum uric acid level, Value after 3 h of drug administration (hyperuricemia rats [1]; 10 mg/kg oral): 68.6 ± 19.2^a3b3c1 μmol/L | Serum uric acid content, Value after 3 h of drug administration (hyperuricemia rats [2]; 2.5 mg/kg oral): 172.7 ± 33.9^a3 μmol/L | Serum uric acid content, Value after 3 h of drug administration (hyperuricemia rats [2]; 5 mg/kg oral): 131.9 ± 29.7^a3, b3 μmol/L | Serum uric acid content, Value after 3 h of drug administration (hyperuricemia rats [2]; 10 mg/kg oral): 107.3 ± 21.2^a3, b3, c3 μmol/L | Autopsy results of survival animals (ICR mice; formal test): No obvious abnormalities were observed in the organs | animal deaths within 24 hours from the administration (ICR mice; [3]): no animal deaths were observed | Abnormal reactions within 12 hours from ig administration (ICR mice; [4]): no abnormalities were observed | Number of dead animals (ICR mice; ig 3000 mg/kg): 0 | LD50/Maximum dose (ICR mice; ig once, mice, 14 days observation, Bliss method, febuxostat: LD50, F compounds: maximum administration dose, no deaths): 3000 mg/kg | death, preliminary experiments (ICR mice; mice): no animal died | toxic reactions, preliminary experiments (ICR mice; mice): no obvious toxicity symptom was observed

Cc1nc(-c2ccc(OCC(C)C)c(C#N)c2)sc1C(=O)OCCN(C)CCO [Compound F-3A]
Serum uric acid level, Value after 3 h of drug administration (hyperuricemia rats [1]; 10 mg/kg oral): 64.1 ± 16.1^a3b3 μmol/L | uric acid-lowering effect (in words) (hyperuricemia rats [1]): very obvious uric acid-lowering effects | p, uric acid level 3 h after drug administration compared with the blank group (hyperuricemia rats [1]): no significant difference | Serum uric acid content, Value after 3 h of drug administration (hyperuricemia rats [2]; 2.5 mg/kg oral): 173.4 ± 32.7^a3, b3 μmol/L | Serum uric acid content, Value after 3 h of drug administration (hyperuricemia rats [2]; 5 mg/kg oral): 137.6 ± 24.3^a3, b3 μmol/L | Serum uric acid content, Value after 3 h of drug administration (hyperuricemia rats [2]; 10 mg/kg oral): 82.3 ± 16.8^a3, b3, c3 μmol/L | Autopsy results of survival animals (ICR mice; formal test): No obvious abnormalities were observed in the organs | animal deaths within 24 hours from the administration (ICR mice; [3]): no animal deaths were observed | Abnormal reactions within 12 hours from ig administration (ICR mice; [4]): no abnormalities were observed | Number of dead animals (ICR mice; ig 3000 mg/kg): 0 | death, preliminary experiments (ICR mice; mice): no animal died | toxic reactions, preliminary experiments (ICR mice; mice): no obvious toxicity symptom was observed | LD50 at 14 days (in vivo): 3000 mg/kg | LD50 at 14 days (in vivo; 3000 mg/kg): ≥ 3000 mg/kg

Cc1nc(-c2ccc(OCC(C)C)c(C#N)c2)sc1C(=O)NC1C(O)OC(CO)C(O)C1O (stereo not drawn) [Compound F-4A]
Serum uric acid level, Value after 3 h of drug administration (hyperuricemia rats [1]; 10 mg/kg oral): 71.4 ± 19.6^a3b3c1 μmol/L | Autopsy results of survival animals (ICR mice; formal test): No obvious abnormalities were observed in the organs | Abnormal reactions within 12 hours from ig administration (ICR mice; [4]): no abnormalities were observed | Number of dead animals (ICR mice; ig 3000 mg/kg): 0 | toxic reactions, preliminary experiments (ICR mice; mice): no obvious toxicity symptom was observed | animal deaths within 24 hours from the administration (ICR mice; mouse, in vivo): no animal deaths were observed | LD50 at 14 days (in vivo): 3000 mg/kg | LD50 at 14 days (in vivo; 3000 mg/kg): ≥ 3000 mg/kg

CCOC(=O)c1sc(-c2ccc(OCC(C)C)c(C#N)c2)nc1C [Febuxostat ethyl ester, ethyl 2-[3-cyano-4-isobutoxyphenyl]-4-methylthiazole-5-carboxylate, reference compound]
Serum uric acid level, Value after 3 h of drug administration (hyperuricemia rats [1]; 14 mg/kg oral): 113.9 ± 24.9^a3b3c3 μmol/L | uric acid-lowering effect (in words) (hyperuricemia rats [1]): inferior to febuxostat | Serum uric acid content, Value after 3 h of drug administration (hyperuricemia rats [2]; 10 mg/kg oral): 177.3 ± 38.6^a3 μmol/L

Cc1nc(-c2ccc(OCC(C)C)c(C#N)c2)sc1C(=O)O [Febuxostat, 2-[3-cyano-4-isobutoxyphenyl]-4-methylthiazole-5-carboxylic acid, reference compound]
Serum uric acid level, Value after 3 h of drug administration (hyperuricemia rats [1]; 14 mg/kg oral): 86.6 ± 17.5^a3b3c3 μmol/L | uric acid-lowering effect (in words) (hyperuricemia rats [1]): good effect on lowering uric acid | p, uric acid level 3 h after drug administration compared with the blank group (hyperuricemia rats [1]): < 0.001 | Serum uric acid content, Value after 3 h of drug administration (hyperuricemia rats [2]; 10 mg/kg oral): 140.8 ± 33.5^a3, b3 μmol/L | animal deaths within 24 hours from the administration (ICR mice; [3]): several animals of the high-dose group of febuxotan died | Number of dead animals (ICR mice; ig 327.7 mg/kg): 0 | Number of dead animals (ICR mice; ig 409.6 mg/kg): 0 | Number of dead animals (ICR mice; ig 512 mg/kg): 1 | Number of dead animals (ICR mice; ig 640 mg/kg): 3 | Number of dead animals (ICR mice; ig 800 mg/kg): 6 | Cause of death (ICR mice; mice after ig administration): toxicity to the urinary system | death, preliminary experiments (ICR mice; mice): caused death in several mice | LD50 at 14 days (in vivo): 701 ± 47.6 mg/kg
